This note sets out measurements from publication PMC2113498 (The Journal of Cell Biology, 1985).

The subject of assay [1] is a-toxin binding to the receptor, extracted membranes. Description: Inhibition of a-toxin labeling of membranes. Details: species or system Torpedo californica. Particulars: 10 mM carbamylcholine added to the solutions of the toxin; Fig. 6H.
The test system of a further assay is mab 264E / AChR. Description: Inhibition of binding of mab 264E to AChR by peptides. Details: species or system Torpedo nobiliana. The note with it: ELISA; tested at concentrations exceeding 36 uM. (An ELISA detects its analyte on a solid surface through an enzyme-linked reagent.)
In a further assay the test system is mab 274D / AChR. Description: Inhibition of binding of mab 274D to AChR by peptides. Details: species or system Torpedo nobiliana. The note with it: ELISA; tested at concentrations exceeding 36 uM.

As for `C[N+](C)(C)CCOC(N)=O.[Cl-]` [carbamylcholine], the “labeling of a-toxin sites in presence of competitor” value in assay [1] is “substantially reduced the labeling”.
With “Ac-PFEGDPFDYSSDHPRG-OH [Delta-peptide 485-499]”, the “inhibition of binding of mab 264E to AChR” value in the assay on mab 264E / AChR is given as “failed to inhibit the binding of either mab”. Moreover, in the assay with mab 274D / AChR, the “inhibition of binding of mab 274D to AChR” value is recorded as “failed to inhibit the binding of either mab”.
